Values quoted from earlier work as cited in patent EP2117510B1, “PARENTERAL PHARMACEUTICAL COMPOSITION AND METHOD FOR PREPARING THE SAME” (Physica Pharma, priority 2007, dated 2008).

Settings: water, room temperature (environ 22° C)

Q: For `CC(C)c1cccc(C(C)C)c1O` [Propofol, 2,6-diisopropylphénol], which “solubilité dans l'eau” value is on record?
A: ~160 µg/mL
